The values that follow come from patent US10947242B2, “[1,2,4]triazolo[1,5and#8208;A]pyrimidine compounds as PDE2 inhibitors” (Janssen Pharmaceutica NV, priority 2016, dated 2021).

Like-named read-outs stand apart in the source and are kept apart here. Some results are limits rather than exact numbers.

Holding throughout (type): biochemical
Assay [1] concerns the target T1, Human recombinant PDE10A (hPDE10A) (Homo sapiens, UniProt Q9Y233).
T1 construct: His tag (inferred from metal chelate purification); made in house; host or cells: Sf9 insect cells (baculovirus)
Kind of assay: In vitro assay PDE10A, human clone (SPA, 3H-cAMP hydrolysis). In a few lines:
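Human recombinant PDE10A was expressed in Sf9 cells via baculovirus and incubated with compound in 50 mM Tris pH 7.8, 8.3 mM MgCl2, 1.7 mM EGTA. Substrate was 60 nM cAMP plus 0.008 μCi 3H-cAMP for 60 min at room temperature, read by SPA scintillation counting. Controls used 1% DMSO, and blanks omitted enzyme.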

The target of assay [2] is T2, Human recombinant PDE3A (hPDE3A) (Homo sapiens, UniProt Q14432).
T2 construct: purchased Scottish Biomedical; host or cells: Sf9 insect cells
T2 sequence (Q14432 whole entry): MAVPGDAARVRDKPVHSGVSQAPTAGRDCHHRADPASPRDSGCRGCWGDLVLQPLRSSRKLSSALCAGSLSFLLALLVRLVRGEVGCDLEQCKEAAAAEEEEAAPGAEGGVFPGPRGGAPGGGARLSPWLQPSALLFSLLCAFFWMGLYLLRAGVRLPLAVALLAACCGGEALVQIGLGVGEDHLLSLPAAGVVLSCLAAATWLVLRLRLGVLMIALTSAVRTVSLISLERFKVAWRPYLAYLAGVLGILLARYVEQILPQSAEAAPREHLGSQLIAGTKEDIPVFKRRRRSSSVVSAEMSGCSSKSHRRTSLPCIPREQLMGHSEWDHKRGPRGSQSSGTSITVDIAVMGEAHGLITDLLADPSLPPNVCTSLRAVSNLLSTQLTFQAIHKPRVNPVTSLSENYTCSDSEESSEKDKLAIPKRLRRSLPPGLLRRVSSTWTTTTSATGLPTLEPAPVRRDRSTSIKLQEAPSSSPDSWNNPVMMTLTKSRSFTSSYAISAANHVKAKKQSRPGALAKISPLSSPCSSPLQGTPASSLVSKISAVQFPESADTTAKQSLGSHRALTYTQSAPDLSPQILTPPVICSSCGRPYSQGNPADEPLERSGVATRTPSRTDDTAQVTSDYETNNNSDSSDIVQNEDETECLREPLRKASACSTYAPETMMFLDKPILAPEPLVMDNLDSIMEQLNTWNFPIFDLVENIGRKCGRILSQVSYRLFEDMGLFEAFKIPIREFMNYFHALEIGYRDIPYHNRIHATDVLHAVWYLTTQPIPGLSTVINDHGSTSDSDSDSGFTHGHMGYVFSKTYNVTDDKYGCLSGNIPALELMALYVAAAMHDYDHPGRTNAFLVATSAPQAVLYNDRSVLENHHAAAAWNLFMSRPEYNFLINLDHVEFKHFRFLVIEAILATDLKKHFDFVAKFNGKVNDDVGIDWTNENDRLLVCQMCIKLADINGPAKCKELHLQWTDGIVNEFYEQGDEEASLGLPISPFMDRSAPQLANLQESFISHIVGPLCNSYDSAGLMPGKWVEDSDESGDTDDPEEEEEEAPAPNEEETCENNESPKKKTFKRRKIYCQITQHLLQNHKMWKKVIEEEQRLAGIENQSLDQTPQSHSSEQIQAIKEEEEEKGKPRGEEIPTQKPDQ
Kind of assay: In vitro assay PDE3A (SPA, 3H-cAMP hydrolysis).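 As to all read-outs here: the method names PDE3A and the table heading PDE3B.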 Conditions: for IC50: hPDE3B pIC50, read-out: pIC50 (converted); for Emax: read-out: hPDE3B Emax, read-out: Emax. The essentials:
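Human PDE3A, cloned from brain, as partially purified Sf9 lysate. Substrate 0.4 μM cAMP plus [3H]-cAMP (2.4 μCi/ml final) in 50 mM Tris pH 7.8, 8.3 mM MgCl2, 1.7 mM EGTA, 60 min at room temperature, 1% DMSO final. Hydrolysis read by SPA scintillation counting against no-enzyme blanks and DMSO controls.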

The target of assay [3] is T3, Human recombinant PDE2A (hPDE2A) (Homo sapiens, UniProt O00408).
T3 construct: His tag (inferred from metal chelate purification); made in house; host or cells: Sf9 insect cells (baculovirus)
T3 sequence (O00408 whole entry): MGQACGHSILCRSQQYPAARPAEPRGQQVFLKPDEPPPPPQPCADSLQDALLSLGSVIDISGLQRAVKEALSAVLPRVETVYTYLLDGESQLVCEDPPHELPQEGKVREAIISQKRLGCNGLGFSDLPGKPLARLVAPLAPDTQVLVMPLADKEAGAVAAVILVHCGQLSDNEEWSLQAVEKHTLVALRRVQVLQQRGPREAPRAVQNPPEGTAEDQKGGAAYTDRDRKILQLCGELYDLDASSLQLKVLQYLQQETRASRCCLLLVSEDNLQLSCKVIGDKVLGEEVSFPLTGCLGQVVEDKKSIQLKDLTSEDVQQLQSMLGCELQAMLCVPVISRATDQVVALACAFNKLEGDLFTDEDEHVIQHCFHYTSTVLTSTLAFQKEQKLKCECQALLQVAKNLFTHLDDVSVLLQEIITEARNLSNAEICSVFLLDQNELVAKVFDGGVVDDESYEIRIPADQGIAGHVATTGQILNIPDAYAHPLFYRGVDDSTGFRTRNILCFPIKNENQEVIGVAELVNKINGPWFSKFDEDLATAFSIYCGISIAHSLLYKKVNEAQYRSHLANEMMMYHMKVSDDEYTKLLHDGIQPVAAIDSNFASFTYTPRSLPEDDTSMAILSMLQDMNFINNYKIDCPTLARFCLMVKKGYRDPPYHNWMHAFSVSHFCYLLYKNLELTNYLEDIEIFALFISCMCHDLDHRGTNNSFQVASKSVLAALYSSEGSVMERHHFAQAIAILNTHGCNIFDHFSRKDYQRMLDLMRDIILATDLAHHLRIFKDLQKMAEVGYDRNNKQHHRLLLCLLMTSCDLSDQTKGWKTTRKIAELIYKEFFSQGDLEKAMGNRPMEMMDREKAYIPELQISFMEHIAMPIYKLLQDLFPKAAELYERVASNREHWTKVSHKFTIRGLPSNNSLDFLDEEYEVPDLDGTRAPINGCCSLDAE
Kind of assay: In vitro assay PDE2A (SPA, 3H-cGMP hydrolysis). Conditions: for IC50: read-out: hPDE2A pIC50 (converted); for Emax: read-out: hPDE2A Emax.

Setting [4] is: human clone (h), default, read-out: hPDE10A2 Emax.
Setting [5] is: human clone (h), default, read-out: hPDE10A2 pIC50 (converted).
Where [6] appears, read: human clone by default (no (r) mark), read-out: hPDE10A2 or rPDE10A2 Emax.
The mark [7] stands for this setting: human clone by default (no (r) mark), read-out: hPDE10A2 or rPDE10A2 pIC50 (converted).
The mark [8] stands for this setting: human recombinant PDE2A, 10 μM cGMP substrate.

T1 sequence (Q9Y233 267-1055): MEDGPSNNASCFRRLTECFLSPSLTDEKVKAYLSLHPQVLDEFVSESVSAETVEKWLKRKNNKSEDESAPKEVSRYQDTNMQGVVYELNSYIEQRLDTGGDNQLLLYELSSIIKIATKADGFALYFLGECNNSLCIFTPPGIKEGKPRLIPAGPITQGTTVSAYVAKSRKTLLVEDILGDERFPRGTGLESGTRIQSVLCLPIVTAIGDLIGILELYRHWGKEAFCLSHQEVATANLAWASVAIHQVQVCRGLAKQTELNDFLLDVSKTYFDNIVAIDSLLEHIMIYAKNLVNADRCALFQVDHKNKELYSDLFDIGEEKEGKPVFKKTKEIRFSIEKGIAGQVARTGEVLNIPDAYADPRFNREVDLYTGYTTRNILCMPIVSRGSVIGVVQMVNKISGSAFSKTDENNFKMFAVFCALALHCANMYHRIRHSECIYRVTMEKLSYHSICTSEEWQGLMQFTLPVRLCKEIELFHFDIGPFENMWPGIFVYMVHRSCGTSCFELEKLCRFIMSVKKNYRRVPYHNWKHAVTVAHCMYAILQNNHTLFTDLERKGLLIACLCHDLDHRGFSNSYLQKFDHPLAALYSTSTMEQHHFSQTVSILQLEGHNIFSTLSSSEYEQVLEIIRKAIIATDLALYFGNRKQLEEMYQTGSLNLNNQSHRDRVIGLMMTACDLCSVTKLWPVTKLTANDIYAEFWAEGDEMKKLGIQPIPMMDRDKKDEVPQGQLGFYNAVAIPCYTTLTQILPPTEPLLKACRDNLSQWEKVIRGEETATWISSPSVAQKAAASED

With `C[C@@H]1CCN(C(=O)c2ncccc2N)C[C@H]1c1cc(C(F)F)nc2ncnn12` [Compound 233], the Emax was found to be 26% in assay [1] (setting [4]); 26% in assay [1] (setting [6]); 10% in assay [2]; 94% in assay [3] (human recombinant PDE2A); 94% in assay [3]. In addition, the IC50 in assay [1] (setting [5]) was > 10 µM; in assay [1] (setting [7]), > 10 µM; in assay [2], > 10 µM; in assay [3] (setting [8]), 0.575 µM; in assay [3] it was 0.575 µM.
Regarding `C[C@@H]1CCN(C(=O)c2cc3ccccc3n2C)C[C@H]1c1cc(C(F)F)nc2ncnn12` [Compound 114], the Emax in assay [1] (setting [4]) came to 101%; in assay [2] it was 98%; in assay [3] (human recombinant PDE2A), 100%; in assay [3], 100%. The IC50 in assay [1] (setting [5]) is 0.0457 µM; in assay [2], 0.0891 µM; in assay [3] (setting [8]), 0.00105 µM; in assay [3] it was 0.00105 µM.
Turning to `C[C@@H]1CCN(C(=O)c2ccc(O)c(F)c2)C[C@H]1c1cc(C(F)F)nc2ncnn12` [Compound 168], the Emax in assay [1] (setting [4]) came out at 99%; in assay [2], 66%; in assay [3] (human recombinant PDE2A) it was 98%; in assay [3], 98%. Besides, the IC50 in assay [1] (setting [5]) is 0.0537 µM; in assay [2] it was 5.13 µM; in assay [3] (setting [8]), 0.00398 µM; in assay [3], 0.00398 µM.
On to `O=C(c1cc(F)cc(F)c1)N1[C@H]2CC[C@H](c3cc(C(F)F)nc4ncnn34)[C@@H]1CC2` [Compound 341], for which the maximal effect (Emax) in assay [1] (setting [6]) amounted to 63%; in assay [2] it was 33%; in assay [3], 97%. The IC50 in assay [1] (setting [7]) was 5.01 µM; in assay [2], > 10 µM; in assay [3] it was 0.141 µM.
`C[C@@H]1CCN(C(=O)c2cccc(C(C)(C)C#N)c2)C[C@H]1c1cc(C(F)F)nc2ncnn12` [Compound 175]: the Emax in assay [1] (setting [4]) was 98%; in assay [2], 71%; in assay [3] (human recombinant PDE2A), 100%; in assay [3], 100%. Further, the IC50 in assay [1] (setting [5]) was 0.141 µM; in assay [2] it was 6.03 µM; in assay [3] (setting [8]) it was 0.0049 µM; in assay [3] it was 0.0049 µM.
On to `C[C@@H]1CCN(C(=O)c2cocn2)C[C@H]1c1cc(C(F)F)nc2ncnn12` [Compound 87], for which the Emax in assay [1] (setting [4]) is 69%; in assay [2] it was 11%; in assay [3] (human recombinant PDE2A), 98%; in assay [3], 98%. Moreover, the IC50 in assay [1] (setting [5]) is 4.57 µM; in assay [2] it was > 10 µM; in assay [3] (setting [8]), 0.214 µM; in assay [3] it was 0.214 µM.
As for `Cc1nc(C(=O)N2CC[C@@H](C)[C@H](c3cc(C(F)F)nc4ncnn34)C2)c(C(F)(F)F)o1` [Compound 161], the Emax in assay [1] (setting [4]) turned out to be 74%; in assay [2], 11%; in assay [3] (human recombinant PDE2A), 98%; in assay [3], 98%. Also, the IC50 in assay [1] (setting [5]) is 3.09 µM; in assay [2], > 10 µM; in assay [3] (setting [8]) it was 0.0741 µM; in assay [3] it was 0.0741 µM.
As to `C[C@@H]1CCN(C(=O)c2ccnnc2)C[C@H]1c1cc(C(F)F)nc2ncnn12` [Compound 248], the Emax in assay [1] (setting [4]) came to 49%; in assay [1] (setting [6]), 49%; in assay [2] it was 2%; in assay [3], 95%. Besides, the IC50 in assay [1] (setting [5]) was 10.5 µM; in assay [1] (setting [7]) it was 10.5 µM; in assay [2], > 10 µM; in assay [3], 0.347 µM.
As to `C[C@@H]1CCN(C(=O)c2ncc[nH]2)C[C@H]1c1cc(C(F)F)nc2ncnn12` [Compound 240], the Emax in assay [1] (setting [4]) is 51%; in assay [1] (setting [6]) it was 51%; in assay [2] it was 9%; in assay [3] (human recombinant PDE2A), 90%; in assay [3], 90%. The IC50 in assay [1] (setting [5]) is 9.12 µM; in assay [1] (setting [7]) it was 9.12 µM; in assay [2] it was > 10 µM; in assay [3] (setting [8]), 1.55 µM; in assay [3] it was 1.55 µM.
Take `COCc1cc(C(=O)N2CC[C@@H](C)[C@H](c3cc(C(F)F)nc4ncnn34)C2)cc(C)n1` [Compound 288]: the Emax in assay [1] (setting [6]) is 93%; in assay [2], 44%; in assay [3] it was 101%. Moreover, the IC50 in assay [1] (setting [7]) was 0.417 µM; in assay [2] it was > 10 µM; in assay [3], 0.00269 µM.
For `Cc1ncoc1C(=O)N1CC[C@@H](C)[C@H](c2cc(C(F)F)nc3ncnn23)C1` [Compound 156], the Emax was 81% in assay [1] (setting [4]), 19% in assay [2], 100% in assay [3] (human recombinant PDE2A) and 100% in assay [3]. Besides, the IC50 in assay [1] (setting [5]) was 2 µM; in assay [2] it was > 10 µM; in assay [3] (setting [8]), 0.0589 µM; in assay [3], 0.0589 µM.
For `C[C@H]1CCN(C(=O)c2ccc3ncsc3c2)C[C@]1(F)c1cc(C(F)F)nc2ncnn12` [Compound 34], the Emax in assay [1] (setting [4]) amounted to 28%; in assay [2] it was 31%; in assay [3] (human recombinant PDE2A) it was 88%; in assay [3], 88%. Also, the IC50 in assay [1] (setting [5]) was > 10 µM; in assay [2], > 10 µM; in assay [3] (setting [8]) it was 1.95 µM; in assay [3] it was 1.95 µM.
Take `O=C(c1ccc(C(F)(F)F)c(F)c1)N1[C@H]2CC[C@H](c3cc(C(F)F)nc4ncnn34)[C@@H]1CC2` [Compound 338]: the Emax in assay [1] (setting [6]) came to 70%; in assay [2] it was 62%; in assay [3] it was 99%. Moreover, the IC50 in assay [1] (setting [7]) was 3.09 µM; in assay [2] it was 5.5 µM; in assay [3], 0.0912 µM.
For `Cc1nn(C)cc1C(=O)N1CC[C@@H](C)[C@H](c2cc(C(F)F)nc3ncnn23)C1` [Compound 198], the Emax in assay [1] (setting [4]) was 91%; in assay [2] it was 35%; in assay [3] (human recombinant PDE2A), 98%; in assay [3] it was 98%. The IC50 was 0.417 µM in assay [1] (setting [5]), > 10 µM in assay [2], 0.00562 µM in assay [3] (setting [8]) and 0.00562 µM in assay [3].
Consider `C[C@@H]1CCN(C(=O)c2ccncc2N)C[C@H]1c1cc(C(F)F)nc2ncnn12` [Compound 142], for which the Emax in assay [1] (setting [4]) was 79%; in assay [2], 35%; in assay [3] (human recombinant PDE2A), 100%; in assay [3], 100%. The IC50 in assay [1] (setting [5]) is 2.57 µM; in assay [2] it was > 10 µM; in assay [3] (setting [8]), 0.0302 µM; in assay [3], 0.0302 µM.
On to `C[C@@H]1CCN(C(=O)c2cccnc2F)C[C@H]1c1cc(C(F)F)nc2ncnn12` [Compound 262], for which the Emax in assay [1] (setting [4]) amounted to 74%; in assay [1] (setting [6]) it was 74%; in assay [2], 37%; in assay [3], 101%. Besides, the IC50 in assay [1] (setting [5]) was 3.24 µM; in assay [1] (setting [7]) it was 3.24 µM; in assay [2], > 10 µM; in assay [3], 0.155 µM.
On to `Cc1cc(C(=O)N2[C@H]3CC[C@H](c4cc(C(F)F)nc5ncnn45)[C@@H]2CC3)cc(F)c1F` [Compound 344], for which the Emax in assay [1] (setting [6]) worked out at 80%; in assay [2], 61%; in assay [3], 99%. The IC50 is 2.57 µM in assay [1] (setting [7]), 7.24 µM in assay [2] and 0.0295 µM in assay [3].
As for `Cc1cc([C@@H]2CC[C@@H]3CC[C@H]2N3C(=O)c2ccc3ncsc3c2)n2ncnc2n1` [Compound 230], the Emax in assay [1] (setting [4]) was found to be 65%; in assay [1] (setting [6]) it was 65%; in assay [2] it was 40%; in assay [3] (human recombinant PDE2A), 93%; in assay [3] it was 93%. The IC50 in assay [1] (setting [5]) is 5.37 µM; in assay [1] (setting [7]), 5.37 µM; in assay [2], > 10 µM; in assay [3] (setting [8]), 1.02 µM; in assay [3] it was 1.02 µM.

The term Emax denotes the maximal effect, on the per cent scale that the assay sets.
